Measurements as given in ChEMBL document CHEMBL4184232, “Novel (S)-1,3,4,12a-tetrahydropyrazino[2,1-c][1,4]benzodiazepine-6,12(2H,11H)-dione derivatives: Selective inhibition of MV-4-11 biphenotypic B myelomonocytic leukemia cells' growth is accompanied by reactive oxygen species overproduction and apoptosis” (Bioorg Med Chem Lett, 2018).
The source made the active and inactive calls. The calls are words filed in the database; no cut-off is given here.

Assays:
P388 = assay: Cytotoxicity against mouse P388 cells; format: functional
MV4-11 [1] = assay: Antiproliferative activity against human MV4-11 cells incubated for 72 hrs by SRB assay; format: functional, cell-based; conditions: MV4-11, 72 h
UMUC3 [2] = assay: Antiproliferative activity against human UM-UC-3 cells incubated for 72 hrs by SRB assay; format: functional, cell-based; conditions: UMUC3, 72 h
MDA-MB-231 = assay: Antiproliferative activity against human MDA-MB-231 cells incubated for 72 hrs by SRB assay; format: functional, cell-based; conditions: MDA-MB-231, 72 h
MCF7 = assay: Antiproliferative activity against human MCF7 cells incubated for 72 hrs by SRB assay; format: functional, cell-based; conditions: MCF7, 72 h
LoVo = assay: Antiproliferative activity against human LoVo cells incubated for 72 hrs by SRB assay; format: functional, cell-based
HT-29 = assay: Antiproliferative activity against human HT-29 cells incubated for 72 hrs by SRB assay; format: functional, cell-based; conditions: HT-29, 72 h
A549 = assay: Antiproliferative activity against human A549 cells incubated for 72 hrs by SRB assay; format: functional, cell-based; conditions: A549, 72 h
A2780 = assay: Antiproliferative activity against human A2780 cells incubated for 72 hrs by SRB assay; format: functional, cell-based; conditions: A2780, 72 h
BALB/3T3 = assay: Antiproliferative activity against mouse BALB/3T3 cells incubated for 72 hrs by SRB assay; format: cell-based; conditions: BALB/3T3, 72 h
Calf thymus DNA = assay: Binding affinity to calf thymus DNA assessed as increase in melting temperature incubated for 18 hrs by thermal denaturation study; format: nucleic-acid assay; conditions: Bos taurus
MV4-11 [3] = assay: Induction of apoptosis in human MV4-11 cells assessed as increase in caspase-3/7 activity using Ac-DEVD-ACC substrate incubated for 24 hrs by fluorescence based assay; format: functional, cell-based
UMUC3 [4] = assay: Induction of apoptosis in human UM-UC-3 cells assessed as increase in caspase-3/7 activity at 5 to 100 uM using Ac-DEVD-ACC substrate incubated for 24 hrs by fluorescence based assay; format: functional, cell-based
UMUC3 [5] = assay: Induction of apoptosis in human UM-UC-3 cells at 5 to 100 uM incubated for 24 hrs by FITC-Annexin V staining based flow cytometry; format: functional, cell-based
MV4-11 [6] = assay: Induction of apoptosis in human MV4-11 cells at 5 to 100 uM incubated for 24 hrs by FITC-Annexin V staining based flow cytometry; format: functional, cell-based
MV4-11 [7] = assay: Induction of cell cycle arrest in human MV4-11 cells assessed as reduction in accumulation at G2/M phase at 100 uM incubated for 24 hrs by propidium iodide staining based flow cytometry; format: functional
MV4-11 [8] = assay: Induction of cell cycle arrest in human MV4-11 cells assessed as reduction in accumulation at S phase at 100 uM incubated for 24 hrs by propidium iodide staining based flow cytometry; format: functional
MV4-11 [9] = assay: Induction of cell cycle arrest in human MV4-11 cells assessed as increase in accumulation at G0/G1 phase at 100 uM incubated for 24 hrs by propidium iodide staining based flow cytometry; format: functional
MV4-11 [10] = assay: Induction of cell cycle arrest in human MV4-11 cells assessed as increase in accumulation at subG1 phase at 100 uM incubated for 24 hrs by propidium iodide staining based flow cytometry; format: functional
UMUC3 [11] = assay: Induction of cell cycle arrest in human UM-UC-3 cells assessed as accumulation at G2/M phase at 5 to 100 uM incubated for 24 hrs by propidium iodide staining based flow cytometry; format: functional
UMUC3 [12] = assay: Induction of cell cycle arrest in human UM-UC-3 cells assessed as accumulation at S phase at 5 to 100 uM incubated for 24 hrs by propidium iodide staining based flow cytometry; format: functional
UMUC3 [13] = assay: Induction of cell cycle arrest in human UM-UC-3 cells assessed as accumulation at G0/G1 phase at 5 to 100 uM incubated for 24 hrs by propidium iodide staining based flow cytometry; format: functional
MV4-11 [14] = assay: Induction of oxidative stress in human MV4-11 cells assessed as increase in ROS production at 5 to 100 uM incubated for 6 hrs by DCF-DA and propidium iodide dye based flow cytometry; format: functional, cell-based
UMUC3 [15] = assay: Induction of oxidative stress in human UM-UC-3 cells assessed as increase in ROS production at 5 to 100 uM incubated for 6 hrs by DCF-DA and propidium iodide dye based flow cytometry; format: functional, cell-based
UMUC3 [16] = assay: Induction of apoptosis in human UM-UC-3 cells assessed as increase in caspase-3/7 activity at 100 uM using Ac-DEVD-ACC substrate incubated for 24 hrs by fluorescence based assay; format: functional, cell-based
[17] = Ratio of induction of apoptosis in human UM-UC-3 cells assessed as increase in caspase-3/7 activity at 100 uM to induction of apoptosis in human MV4-11 cells assessed as increase in caspase-3/7 activity at 100 uM; format: functional

## O=C1Nc2ccccc2C(=O)N2C=C(c3ccc(Br)cc3)C[C@@H]12
P388
  GI50: 0.51 µM

## O=C1Nc2ccc(Cl)cc2C(=O)N2CCN(C(=O)c3ccc(-c4ccccc4)cc3)C[C@@H]12
MV4-11 [1]
  IC50: 40.7 µM
UMUC3 [2]
  IC50: 94.4 µM
MDA-MB-231
  IC50: 85.8 µM
MCF7
  IC50: 50.9 µM
LoVo
  IC50: 28.9 µM
HT-29
  IC50: 46.4 µM
A549
  IC50: 51 µM
A2780
  IC50: 29.7 µM
BALB/3T3
  IC50: 105 µM

## O=C1Nc2ccccc2C(=O)N2CCN(C(=O)c3ccccc3I)C[C@@H]12
MV4-11 [1]
  IC50: 44 µM
UMUC3 [2]
  IC50: 31.1 µM

## O=C1Nc2ccccc2C(=O)N2CCN(C(=O)c3ccccc3)C[C@@H]12
MV4-11 [1]
  IC50: 27.1 µM
UMUC3 [2]
  IC50: 10.5 µM

## O=C1Nc2ccc(Br)cc2C(=O)N2CCN(C(=O)c3ccc(-c4ccccc4)cc3)C[C@@H]12
MV4-11 [1]
  IC50: 8.7 µM
UMUC3 [2]
  IC50: 119 µM
MDA-MB-231
  IC50: 113 µM
MCF7
  IC50: 57 µM
LoVo
  IC50: 22.1 µM
HT-29
  IC50: 17.9 µM
A549
  IC50: 48.1 µM
A2780
  IC50: 28.2 µM
BALB/3T3
  IC50: 121 µM

## O=C1Nc2ccccc2C(=O)N2CCN(C(=O)c3ccc(-c4ccccc4)cc3)C[C@H]12
MV4-11 [1]
  IC50: 39.6 µM
UMUC3 [2]
  IC50: 19.6 µM

## O=C1Nc2ccccc2C(=O)N2CCN(C(=O)c3ccccc3I)C[C@H]12
MV4-11 [1]
  IC50: 39.8 µM
UMUC3 [2]
  IC50: 13.3 µM

## O=C1Nc2ccccc2C(=O)N2CCN(C(=O)c3ccc(Cl)cc3)C[C@H]12
MV4-11 [1]
  IC50: 36.7 µM
UMUC3 [2]
  IC50: 22.3 µM

## O=C(O)CN1C(=O)[C@@H]2CN(C(=O)c3ccc(-c4ccccc4)cc3)CCN2C(=O)c2ccccc21
MV4-11 [1]
  IC50: 7.6 µM
UMUC3 [2]
  IC50: 3 µM
MDA-MB-231
  IC50: 7.8 µM
MCF7
  IC50: 7.6 µM
LoVo
  IC50: 27.6 µM
HT-29
  IC50: 17.8 µM
A549
  IC50: 3.2 µM
A2780
  IC50: 19.6 µM
BALB/3T3
  IC50: 15 µM

## O=C1Nc2ccccc2C(=O)N2CCN(C(=O)c3ccc(Cl)cc3)C[C@@H]12
MV4-11 [1]
  IC50: 32.3 µM
UMUC3 [2]
  IC50: 18.2 µM

## COc1cc2c(cc1O)NC(=O)[C@@H]1C[C@@H](O)CN1C2=O
Calf thymus DNA
  deltaTm: 3.3 K

## CN1C(=O)[C@@H]2CN(C(=O)c3ccc(-c4ccccc4)cc3)CCN2C(=O)c2ccccc21
MV4-11 [1]
  IC50: 63.1 µM
UMUC3 [2]
  IC50: 103 µM
MDA-MB-231
  IC50: 134 µM
MCF7
  IC50: 77.5 µM
LoVo
  IC50: 58.3 µM
HT-29
  IC50: 94.2 µM
A549
  IC50: 92 µM
A2780
  IC50: 64.5 µM
BALB/3T3
  IC50: 37 µM

## O=C1Nc2ccccc2C(=O)N2CCN(C(=O)c3ccccc3)C[C@H]12
MV4-11 [1]
  IC50: 28.8 µM
UMUC3 [2]
  IC50: 24.6 µM

## O=C(CN1C(=O)[C@@H]2CN(C(=O)c3ccc(-c4ccccc4)cc3)CCN2C(=O)c2ccccc21)OCc1ccccc1
MV4-11 [1]
  IC50: 44.2 µM
UMUC3 [2]
  IC50: 96.8 µM
MDA-MB-231
  IC50: 30.3 µM
MCF7
  IC50: 147 µM
LoVo
  IC50: 23.1 µM
HT-29
  IC50: 40.1 µM
A549
  IC50: 34.1 µM
A2780
  IC50: 28 µM
BALB/3T3
  IC50: 31 µM

## O=C(c1ccc(-c2ccccc2)cc1)N1CCN2C(=O)c3ccccc3N(Cc3ccccc3)C(=O)[C@@H]2C1
MV4-11 [1]
  IC50: 10.8 µM
UMUC3 [2]
  IC50: 136 µM
MDA-MB-231
  IC50: 41 µM
MCF7
  IC50: 35.8 µM
LoVo
  IC50: 11 µM
HT-29
  IC50: 144 µM
A549
  IC50: 106 µM
A2780
  IC50: 62.8 µM
BALB/3T3
  IC50: 136 µM
MV4-11 [3]
  Activity: Dose-dependent effect
UMUC3 [4]
  Activity: inactive
UMUC3 [5]
  Activity: inactive
MV4-11 [6]
  Activity: Active
MV4-11 [7]
  Activity: Active
MV4-11 [8]
  Activity: Active
MV4-11 [9]
  Activity: Active
MV4-11 [10]
  Activity: Active
UMUC3 [11]
  Activity: inactive
UMUC3 [12]
  Activity: inactive
UMUC3 [13]
  Activity: inactive
MV4-11 [14]
  Activity: Dose-dependent effect
UMUC3 [15]
  Activity: Dose-dependent effect

## O=C1Nc2ccccc2C(=O)N2CCN(C(=O)c3ccc(-c4ccccc4)cc3)C[C@@H]12
MV4-11 [1]
  IC50: 17.5 µM
UMUC3 [2]
  IC50: 61.5 µM
MDA-MB-231
  IC50: 141 µM
MCF7
  IC50: 47.3 µM
LoVo
  IC50: 55 µM
HT-29
  IC50: 154 µM
A549
  IC50: 96.1 µM
A2780
  IC50: 35.8 µM
BALB/3T3
  IC50: 79.6 µM
MV4-11 [3]
  Activity: Dose-dependent effect
UMUC3 [16]
  Activity: Active
[17]
  Ratio: >2
MV4-11 [7]
  Activity: Active
MV4-11 [8]
  Activity: Active
MV4-11 [9]
  Activity: Active
MV4-11 [10]
  Activity: Active
UMUC3 [11]
  Activity: inactive
UMUC3 [12]
  Activity: inactive
UMUC3 [13]
  Activity: inactive
MV4-11 [14]
  Activity: Active
UMUC3 [15]
  Activity: Active
